The results in this text go back to patent publication US5840745A, “Hydrosoluble 3-arylidene-2-oxindole derivatives as tyrosine kinase inhibitors” (Pharmacia S. p. A., priority 1995, dated 1998).

pIC50: −log10 of the molar value. Structures can show the parent of a compound that is named as a salt.

Assay [1] deals with p45 v-abl tyrosine kinase. The experiment in a line: in vitro p45 v-abl kinase assay ((Val^5)-Angiotension II phosphorylation). It counts as biochemical, Abelson murine leukaemia virus. The note with it: 40 ng purified abl-kinase; peptide (2 Mm) and ATP (50 μM); 30° C., pH 8.0; triplicated determinations; read-out: IC50 v-abl, inhibition of p45 v-abl kinase. Here is the method:
p45 v-abl Kinase Purification
The enzyme used in our test was the p45 v-abl tyrosine kinase which represents the catalytic domain of the Abelson tyrosine kinase (isolated from the Abelson murine leukaemia virus). The p45 v-abl kinase was produced and isolated as described by Wang et al. in J. Biol. Chem. 260, 64 (1985) and by Ferguson et al. in J. Biol. Chem. 260, 3652 (1985) and in Biochem. J. 257, 321 (1989).
(Val^5)-Angiotension II phosphorylation was performed by incubation with 40 ng of purified abl-kinase and (γ-^32 p)-ATP, in 50 μl of buffer containing Tris-HCl 25 mM, pH 8.0, MgCl2 10 mM and dithiothreitol 0.1 mM (kinase buffer). The reaction mixture was incubated for the indicated time at 30° C. and the reaction stopped by adding 50 μl of 5% trichloroacetic acid. After a brief incubation on ice, tubes were centrifuged. The supernatants were spotted on phosphocellulose paper squares (Whatman P-81) and washed extensively in acetic acid. The radioactivity bound to dried phosphocellulose squares was measured in a liquid scintillation counter. IC50 values were calculated from triplicated determinations of each experimental point. Each inhibitor was tested at concentrations ranging from […] in the presence of fixed concentrations of peptide (2 Mm) and ATP (50 μM). […]

Assay [2] deals with K562 cells (human chronic myeloid leukemia). The experiment in a line: K562 cell growth inhibition assay. It counts as cell-based. Conditions: 72 h, 10000 cells/well, cell count versus untreated control cells. Here is the method: K562 Cell Growth Inhibition Assay
K562 cells, a human myelogenous leukemia cell line, were seeded into a 24 wells tissue culture plate (Falcon 3047) (10000/well) in the presence of increasing concentrations of the compounds. After 72 h, cells were harvested and were counted using a cell counter (Coulter Counter--ZM). The percent of inhibition was evaluated in respect to the untreated control cells.
The inhibitory activity data for two representative compounds according to the present invention, obtained both in the in vitro p45 v-abl kinase assay and the in vivo human chronic myeloid leukemia K562 cell growth inhibition assay described above, are set out in the following Table I.

What is called pIC50 is −log10 of the IC50, conventionally taken in molar units. `COc1ccc2[nH]cc(C=C3C(=O)Nc4ccc(NC(=O)CCN5CCCCC5)cc43)c2c1` [5-(3-piperidinopropionylamino)-3-(5-methoxyindol-3-ylmethylene)-2-oxindole.HCl]: the pIC50 in assay [1] was 5.76; in assay [2], 5.43.
In the case of `CCOC(=O)c1ccc2c(c1)C(=Cc1c[nH]c3ccc(OC)cc13)C(=O)N2` [5-carboethoxy-3-(5-methoxyindol-3-ylmethylene)-2-oxindole], the figures for the pIC50 in assay [1] and in assay [2] were 5.70 and 5.63, respectively.
